Experimental data reported in paper PMC5574184 (Journal of medicinal chemistry, 2016).
Entries after “also recorded” stand apart in the source; their conditions may differ.

Experiments:
HDAC2 = HDAC2 (Homo sapiens, UniProt Q92769); test: ELISA-based HDAC activity assay; type: biochemical
HDAC3 = HDAC3 (Homo sapiens, UniProt O15379); test: ELISA-based HDAC activity assay; type: biochemical
HDAC1 = HDAC1 (Homo sapiens, UniProt Q13547); test: ELISA-based HDAC activity assay; type: biochemical
60 NCI cell lines = test: NCI-60 dose response assay; type: cell-based, human; settings: for GI50 in the dose response assay (in words): most of the NCI-60 cell lines
[1] = system: global histone H3 lysine 9 (H3K9) acetylation in HCT116; test: Western blot analysis of global histone H3 lysine 9 acetylation; type: cell-based, human; settings: for concentration at which significant induction of global acetylation was observed: HCT116, 24 h exposure, tested at 10 nM, 100 nM, 1 μM
HDAC6 = target: T1, HDAC6 (Homo sapiens, UniProt Q9UBN7); test: ELISA-based HDAC activity assay; type: biochemical
T1 sequence (Q9UBN7 1-1215): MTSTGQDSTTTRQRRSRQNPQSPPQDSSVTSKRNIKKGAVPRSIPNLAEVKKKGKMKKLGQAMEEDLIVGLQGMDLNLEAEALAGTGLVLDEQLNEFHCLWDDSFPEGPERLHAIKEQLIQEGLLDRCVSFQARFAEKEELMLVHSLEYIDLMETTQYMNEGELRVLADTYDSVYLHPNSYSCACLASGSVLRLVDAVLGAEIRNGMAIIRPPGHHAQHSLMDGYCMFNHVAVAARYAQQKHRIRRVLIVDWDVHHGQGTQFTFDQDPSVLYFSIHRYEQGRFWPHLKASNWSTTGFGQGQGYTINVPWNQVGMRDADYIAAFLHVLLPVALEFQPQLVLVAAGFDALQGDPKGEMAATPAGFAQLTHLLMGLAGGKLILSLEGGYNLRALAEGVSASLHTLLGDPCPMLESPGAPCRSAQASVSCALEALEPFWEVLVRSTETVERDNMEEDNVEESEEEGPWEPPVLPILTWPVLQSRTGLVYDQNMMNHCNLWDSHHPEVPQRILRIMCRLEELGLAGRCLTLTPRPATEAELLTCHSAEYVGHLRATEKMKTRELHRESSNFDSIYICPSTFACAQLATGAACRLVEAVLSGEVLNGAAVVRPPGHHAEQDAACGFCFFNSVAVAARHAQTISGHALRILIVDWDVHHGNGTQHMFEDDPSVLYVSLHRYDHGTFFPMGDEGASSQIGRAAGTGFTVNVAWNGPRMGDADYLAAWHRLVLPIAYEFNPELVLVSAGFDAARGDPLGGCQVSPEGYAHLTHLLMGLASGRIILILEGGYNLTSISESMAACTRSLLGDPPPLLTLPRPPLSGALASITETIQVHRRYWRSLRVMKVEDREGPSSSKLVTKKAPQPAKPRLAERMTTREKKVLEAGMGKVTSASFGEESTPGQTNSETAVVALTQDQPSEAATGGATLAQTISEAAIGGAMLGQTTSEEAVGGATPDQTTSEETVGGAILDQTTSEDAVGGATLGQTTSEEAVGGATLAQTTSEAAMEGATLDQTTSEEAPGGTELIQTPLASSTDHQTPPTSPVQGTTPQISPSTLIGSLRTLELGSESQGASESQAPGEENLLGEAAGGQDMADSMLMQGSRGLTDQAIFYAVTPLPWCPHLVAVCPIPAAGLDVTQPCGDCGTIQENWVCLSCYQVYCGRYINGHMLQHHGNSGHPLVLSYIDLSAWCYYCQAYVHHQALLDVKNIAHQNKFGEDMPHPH

[2] = NCI nontumored animal toxicity assay for acute toxicity; type: in vivo; settings: highest dose of 50 mg/kg tested
[3] = system: HCT116 colorectal cancer cell line; settings: read-out: GI50 previously reported; HCT 116 cell growth inhibition; cited from earlier work
[4] = mouse serum, mouse microsomal proteins, cellular proteins; cited from earlier work

Chain of HDAC1 (Q13547 whole entry): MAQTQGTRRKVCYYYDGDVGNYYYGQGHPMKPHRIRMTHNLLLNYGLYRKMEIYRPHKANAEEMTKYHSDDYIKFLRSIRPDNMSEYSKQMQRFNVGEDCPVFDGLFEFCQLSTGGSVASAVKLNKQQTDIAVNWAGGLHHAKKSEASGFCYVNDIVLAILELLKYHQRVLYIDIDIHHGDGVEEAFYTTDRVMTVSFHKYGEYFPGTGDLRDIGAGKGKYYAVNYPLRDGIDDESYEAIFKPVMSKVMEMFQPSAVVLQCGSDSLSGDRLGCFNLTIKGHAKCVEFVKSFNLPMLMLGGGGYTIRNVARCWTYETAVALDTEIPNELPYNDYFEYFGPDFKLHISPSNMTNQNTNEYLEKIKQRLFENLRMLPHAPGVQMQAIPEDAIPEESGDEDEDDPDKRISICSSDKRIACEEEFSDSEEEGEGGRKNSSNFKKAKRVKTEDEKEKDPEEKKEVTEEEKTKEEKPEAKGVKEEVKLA
Chain of HDAC2 (Q92769 whole entry): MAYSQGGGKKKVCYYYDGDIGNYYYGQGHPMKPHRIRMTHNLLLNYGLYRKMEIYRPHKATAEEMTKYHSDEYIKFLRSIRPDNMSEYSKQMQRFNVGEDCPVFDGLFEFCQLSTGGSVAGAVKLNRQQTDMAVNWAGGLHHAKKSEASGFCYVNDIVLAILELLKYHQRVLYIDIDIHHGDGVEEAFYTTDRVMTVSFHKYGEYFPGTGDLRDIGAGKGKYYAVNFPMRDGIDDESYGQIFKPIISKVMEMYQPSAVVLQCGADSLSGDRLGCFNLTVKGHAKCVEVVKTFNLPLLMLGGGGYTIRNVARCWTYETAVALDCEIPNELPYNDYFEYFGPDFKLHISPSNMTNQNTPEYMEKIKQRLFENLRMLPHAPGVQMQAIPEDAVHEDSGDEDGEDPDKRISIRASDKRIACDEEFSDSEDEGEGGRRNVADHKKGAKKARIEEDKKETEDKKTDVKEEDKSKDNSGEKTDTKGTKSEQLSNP
Chain of HDAC3 (O15379 whole entry): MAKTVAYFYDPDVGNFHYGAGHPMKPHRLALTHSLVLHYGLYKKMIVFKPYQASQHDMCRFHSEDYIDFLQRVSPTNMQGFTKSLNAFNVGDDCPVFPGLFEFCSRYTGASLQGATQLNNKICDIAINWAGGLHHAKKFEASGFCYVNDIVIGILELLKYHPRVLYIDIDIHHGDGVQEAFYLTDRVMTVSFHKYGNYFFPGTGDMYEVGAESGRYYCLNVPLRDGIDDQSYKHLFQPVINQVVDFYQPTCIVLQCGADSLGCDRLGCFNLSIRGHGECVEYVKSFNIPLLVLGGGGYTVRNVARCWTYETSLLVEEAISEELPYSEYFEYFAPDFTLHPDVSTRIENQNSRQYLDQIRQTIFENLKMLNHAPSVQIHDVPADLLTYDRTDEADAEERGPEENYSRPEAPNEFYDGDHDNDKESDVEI
Chain of HDAC3 (Q9Y618 whole entry partner): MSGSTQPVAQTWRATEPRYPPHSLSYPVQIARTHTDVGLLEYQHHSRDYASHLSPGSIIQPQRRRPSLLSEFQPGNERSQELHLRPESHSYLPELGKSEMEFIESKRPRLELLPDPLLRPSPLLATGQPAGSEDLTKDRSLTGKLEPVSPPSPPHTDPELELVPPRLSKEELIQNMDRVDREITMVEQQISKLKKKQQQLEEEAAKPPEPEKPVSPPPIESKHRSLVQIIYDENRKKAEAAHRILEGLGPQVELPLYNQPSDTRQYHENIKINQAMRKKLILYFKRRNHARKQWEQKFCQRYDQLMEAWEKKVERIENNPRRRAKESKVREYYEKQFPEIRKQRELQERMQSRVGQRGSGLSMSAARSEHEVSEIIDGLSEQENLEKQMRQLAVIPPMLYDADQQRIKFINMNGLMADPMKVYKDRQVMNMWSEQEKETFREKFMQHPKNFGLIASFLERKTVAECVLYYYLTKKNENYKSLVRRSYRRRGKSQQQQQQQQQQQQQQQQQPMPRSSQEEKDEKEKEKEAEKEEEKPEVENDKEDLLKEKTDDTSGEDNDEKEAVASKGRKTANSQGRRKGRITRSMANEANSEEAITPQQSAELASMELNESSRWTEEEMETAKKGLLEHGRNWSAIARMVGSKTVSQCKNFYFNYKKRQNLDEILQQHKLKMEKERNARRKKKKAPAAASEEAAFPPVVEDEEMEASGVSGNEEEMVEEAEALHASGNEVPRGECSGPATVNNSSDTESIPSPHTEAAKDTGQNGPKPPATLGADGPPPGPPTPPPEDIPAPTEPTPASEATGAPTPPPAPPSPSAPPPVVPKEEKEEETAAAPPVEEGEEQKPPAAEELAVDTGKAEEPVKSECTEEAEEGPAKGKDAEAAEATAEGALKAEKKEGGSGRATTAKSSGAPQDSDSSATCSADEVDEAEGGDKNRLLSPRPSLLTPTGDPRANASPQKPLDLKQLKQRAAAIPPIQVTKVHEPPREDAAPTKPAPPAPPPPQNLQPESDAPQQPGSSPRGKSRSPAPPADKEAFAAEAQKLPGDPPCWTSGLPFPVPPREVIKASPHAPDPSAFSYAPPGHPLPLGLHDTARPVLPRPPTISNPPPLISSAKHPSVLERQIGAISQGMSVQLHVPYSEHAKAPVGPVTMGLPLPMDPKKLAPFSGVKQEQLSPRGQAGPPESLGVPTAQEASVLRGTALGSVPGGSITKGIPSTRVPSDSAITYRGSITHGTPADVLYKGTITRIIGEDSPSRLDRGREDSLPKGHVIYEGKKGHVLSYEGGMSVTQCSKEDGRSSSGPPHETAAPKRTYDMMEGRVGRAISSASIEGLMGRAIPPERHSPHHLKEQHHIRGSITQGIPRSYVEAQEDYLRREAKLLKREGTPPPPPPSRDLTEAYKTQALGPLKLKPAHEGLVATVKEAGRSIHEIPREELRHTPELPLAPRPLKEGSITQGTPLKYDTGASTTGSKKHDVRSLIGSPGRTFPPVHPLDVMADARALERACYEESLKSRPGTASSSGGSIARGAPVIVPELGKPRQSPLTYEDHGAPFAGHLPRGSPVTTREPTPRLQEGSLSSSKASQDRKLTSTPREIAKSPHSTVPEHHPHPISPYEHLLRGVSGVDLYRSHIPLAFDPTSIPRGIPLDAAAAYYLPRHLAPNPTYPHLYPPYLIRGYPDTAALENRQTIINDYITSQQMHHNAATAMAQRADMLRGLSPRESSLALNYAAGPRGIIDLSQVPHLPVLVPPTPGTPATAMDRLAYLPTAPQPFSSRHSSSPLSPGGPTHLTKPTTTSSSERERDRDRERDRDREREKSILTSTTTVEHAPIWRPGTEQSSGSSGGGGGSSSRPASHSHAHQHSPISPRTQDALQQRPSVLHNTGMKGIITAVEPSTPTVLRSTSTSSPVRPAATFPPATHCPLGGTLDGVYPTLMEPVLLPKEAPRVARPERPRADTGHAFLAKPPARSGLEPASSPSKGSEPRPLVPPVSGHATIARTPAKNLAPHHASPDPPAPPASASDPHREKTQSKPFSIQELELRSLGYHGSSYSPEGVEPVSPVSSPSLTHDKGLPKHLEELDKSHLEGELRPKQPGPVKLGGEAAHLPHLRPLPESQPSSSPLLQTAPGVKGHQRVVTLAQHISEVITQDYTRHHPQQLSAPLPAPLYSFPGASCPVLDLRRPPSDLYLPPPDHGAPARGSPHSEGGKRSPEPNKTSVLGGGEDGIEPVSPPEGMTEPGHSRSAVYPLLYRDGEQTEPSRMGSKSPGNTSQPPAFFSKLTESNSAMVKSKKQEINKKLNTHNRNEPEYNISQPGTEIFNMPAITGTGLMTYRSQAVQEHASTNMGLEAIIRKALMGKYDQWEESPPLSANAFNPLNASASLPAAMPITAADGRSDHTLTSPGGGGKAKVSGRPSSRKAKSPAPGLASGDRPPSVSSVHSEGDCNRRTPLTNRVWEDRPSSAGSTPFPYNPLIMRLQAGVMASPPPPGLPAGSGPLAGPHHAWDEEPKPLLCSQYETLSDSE

For `CCCCCCCC(=O)SCC/C=C/[C@@H]1CC(=O)NCCOCCOCC(=O)N[C@@H](C(C)C)C(=O)O1` [Analogue 6], the “inhibition of HDAC2, single concentration screen” value (HDAC2; 2 μM) was “significantly”, the “inhibition of HDAC3, single concentration screen” value (HDAC3; 2 μM) was “significantly” and the “inhibition of HDAC1, single concentration screen” value (HDAC1; 2 μM) was “significantly”.
With `CCCCCCCC(=O)SCC/C=C/[C@@H]1CC(=O)NCc2cccc(n2)-c2cccc(n2)C(=O)N[C@@H](C(C)C)C(=O)O1` [Analogue 7] the “inhibition of HDAC2, single concentration screen” value (HDAC2; 250 nM) was “significantly”, the “concentration inhibiting the growth of most of the cancer cell lines” value (60 NCI cell lines; NCI-60 dose response) was < 10 nM and the “GI50 in the dose response assay (in words)” value (60 NCI cell lines) was “low nanomolar”. The “concentration at which significant induction of global acetylation was observed” value [1] was 10 nM, the “inhibition of HDAC3, single concentration screen” value (HDAC3; 250 nM) was “significantly” and the “selectivity for class I HDAC proteins (HDAC1, HDAC2, HDAC3) over class II HDAC6” value (HDAC6; from IC50 values) was “at least 464 fold”. The “inhibition of HDAC1, single concentration screen” value (HDAC1; 250 nM) was “significantly” and the acute toxicity [2] was “no signs of toxicity; also recorded: well tolerated”.
With `CCCCCCCC(=O)SCC/C=C/[C@@H]1CC(=O)NCc2cccc(n2)CN(C)CC(=O)N[C@@H](C(C)C)C(=O)O1` [Analogue 8] the “GI50 in the dose response assay (in words)” value (60 NCI cell lines) was “micromolar GI50s” and the “inhibition of HDAC6, single concentration screen” value (HDAC6; 1 μM) was “slightly greater inhibition of HDAC6 compared to 6 and 7”.
In the case of `CCCCCCCC(=O)SCC/C=C/[C@@H]1CC(=O)NCc2cccc(n2)CN(Cc2cccc3ccccc23)CC(=O)N[C@@H](C(C)C)C(=O)O1` [Analogue 13], the global acetylation observed ([1]; HCT116, even at 100 nM) is reported as “hardly any global acetylation”.
For `CCCCCCCC(=O)SCC/C=C/[C@@H]1CC(=O)NCc2nc(cs2)C2=N[C@@](C)(CS2)C(=O)N[C@@H](C(C)C)C(=O)O1` [Largazole], the GI50 [3] is listed as 44 nM, the “concentration at which significant induction of global acetylation was observed” value [1] is listed as 10 nM and the metabolic conversion [4] is listed as “rapidly converted to the active metabolite largazole thiol”.
